EPA's CvTdb concentration-time database

Experiments:
Mouse [1] = assay: concentration in plasma after dosing; details: 0.25 h; dosed: 2-Hydroxy-4-methoxybenzophenone; 50 mg/kg; iv; Female; B6C3F1
Mouse [2] = assay: concentration in plasma after dosing; details: 2 h; dosed: 2-Hydroxy-4-methoxybenzophenone; 500 mg/kg; oral; Male; B6C3F1
Mouse [3] = assay: concentration in plasma after dosing; details: 3 h; dosed: 2-Hydroxy-4-methoxybenzophenone; 50 mg/kg; iv; Female; B6C3F1
Rat [4] = assay: concentration in plasma after dosing; details: 0.25 h; dosed: 2-Hydroxy-4-methoxybenzophenone; 500 mg/kg; oral; Female; F344
Rat [5] = assay: concentration in plasma after dosing; details: 0.5 h; dosed: Nitrite; 80 mg/kg; oral; Female; F344
Rat [6] = assay: concentration in plasma after dosing; details: dosed: Nitrite, 80 mg/kg, oral, Female, F344
Rat [7] = assay: concentration in plasma after dosing; details: dosed: Nitrite, 20 mg/kg, iv, Male, F344
Rat [8] = assay: concentration in liver after dosing; details: 6 h; dosed: Fluorotelomer alcohol 8+2; 80 mg/kg; oral; Female; Harlan Sprague Dawley
Rat [9] = assay: concentration in plasma after dosing; details: dosed: 678-39-7, 12 mg/kg, iv, Male, F344
Rat [10] = assay: concentration in liver after dosing; details: 6 h; dosed: Fluorotelomer alcohol 8+2; 24 mg/kg; oral; Male; Harlan Sprague Dawley
Rat [11] = assay: concentration in liver after dosing; details: 6 h; dosed: Perfluorooctanoic acid; 80 mg/kg; oral; Female; Harlan Sprague Dawley
Rat [12] = assay: concentration in plasma after dosing; details: dosed: 678-39-7, 12 mg/kg, iv, Male, F344; remark: listed apart in the source
Rat [13] = assay: concentration in kidney after dosing; details: 3 h; dosed: Perfluorooctanoic acid; 80 mg/kg; oral; Female; Harlan Sprague Dawley
Rat [14] = assay: concentration in liver after dosing; details: 528 h; dosed: Perfluorooctanoic acid; 12 mg/kg; oral; Male; Harlan Sprague Dawley
Rat [15] = assay: concentration in kidney after dosing; details: 48 h; dosed: Perfluorooctanoic acid; 80 mg/kg; oral; Female; Harlan Sprague Dawley
Rat [16] = assay: concentration in plasma after dosing; details: dosed: 678-39-7, 40 mg/kg, iv, Male, F344
Rat [17] = assay: concentration in kidney after dosing; details: 3 h; dosed: Fluorotelomer alcohol 8+2; 24 mg/kg; oral; Male; Harlan Sprague Dawley
Rat [18] = assay: concentration in liver after dosing; details: 6 h; dosed: Fluorotelomer alcohol 8+2; 24 mg/kg; oral; Male; Harlan Sprague Dawley; remark: listed apart in the source
Rat [19] = assay: concentration in brain after dosing; details: 192 h; dosed: Perfluorooctanoic acid; 12 mg/kg; oral; Male; Harlan Sprague Dawley
Rat [20] = assay: concentration in plasma after dosing; details: dosed: Potassium Perfluorobutane Sulfonate, 4 mg/kg, iv, Male, F344
Rat [21] = assay: concentration in plasma after dosing; details: 1 h; dosed: Potassium Perfluorobutane Sulfonate; 4 mg/kg; iv; Male; F344
Rat [22] = assay: concentration in liver after dosing; details: 6 h; dosed: Potassium Perfluorobutane Sulfonate; 20 mg/kg; oral; Male; Harlan Sprague Dawley
Rat [23] = assay: concentration in plasma after dosing; details: dosed: Potassium Perfluorobutane Sulfonate, 4 mg/kg, oral, Male, Harlan Sprague Dawley
Rat [24] = assay: concentration in plasma after dosing; details: 0.75 h; dosed: Potassium Perfluorobutane Sulfonate; 4 mg/kg; iv; Female; Harlan Sprague-Dawley
Rat [25] = assay: concentration in plasma after dosing; details: 0.25 h; dosed: Potassium Perfluorobutane Sulfonate; 4 mg/kg; iv; Male; F344
Rat [26] = assay: concentration in plasma after dosing; details: dosed: Potassium Perfluorobutane Sulfonate, 20 mg/kg, oral, Male, Harlan Sprague Dawley
Rat [27] = assay: concentration in plasma after dosing; details: dosed: Potassium Perfluorobutane Sulfonate, 4 mg/kg, iv, Male, F344; remark: listed apart in the source
rat [28] = assay: concentration in adipose after dosing (ugEq/g tissue); details: dosed: benzo[a]pyrene, iv, male, Wistar

COc1ccc(C(=O)c2ccccc2)c(O)c1 [2-Hydroxy-4-methoxybenzophenone]
Details	concentration in plasma [ng/mL]
Mouse [1]	4680
Mouse [2]	95.6
Mouse [3]	134
Rat [4]	619

O=N[O-] [Nitrite]
Details	concentration in plasma [ng/mL]
Rat [5]	30200

concentration in plasma [ng/mL]
Details	1.25 h	6 h	10 min
Rat [6]	–	1800	24800
Rat [7]	2000	–	15400

O=C(O)C(F)(F)C(F)(F)C(F)(F)C(F)(F)C(F)(F)C(F)(F)C(F)(F)F [Perfluorooctanoic acid]
Details	concentration in brain [ng/g]	concentration in kidney [ng/g]	concentration in liver [ng/g]
Rat [8]	–	–	1600
Rat [10]	–	–	1350
Rat [11]	–	–	160000
Rat [13]	–	321000	–
Rat [14]	–	–	19500
Rat [15]	–	703	–
Rat [17]	–	272	–
Rat [18]	–	–	1450
Rat [19]	543	–	–

Details	concentration in plasma [ng/mL]
Rat [9], 0.5 h	210
Rat [9], 9 h	521
Rat [12], 1 h	378
Rat [12], 6 h	480
Rat [16], 0.25 h	671
Rat [16], 6 h	1310
Rat [16], 24 h	819

O=S(=O)([O-])C(F)(F)C(F)(F)C(F)(F)C(F)(F)F.[K+] [Potassium Perfluorobutane Sulfonate]
Details	concentration in plasma [ng/mL]
Rat [20], 0.25 h	15900
Rat [20], 6 h	47.5
Rat [23], 0.75 h	13400
Rat [23], 12 h	4960
Rat [26], 5 min	1130
Rat [26], 9 h	13200
Rat [27], 3 h	10200
Rat [27], 5 min	29400

Details	concentration in liver [ng/g]	concentration in plasma [ng/mL]
Rat [21]	–	17700
Rat [22]	43800	–
Rat [24]	–	2530
Rat [25]	–	17900

c1ccc2c(c1)cc1ccc3cccc4ccc2c1c34 [benzo[a]pyrene]
concentration in adipose, rat [28]
Details	2 mg/kg	6 mg/kg	15 mg/kg
0.5 h	2.77	2.29	8.6
0.75 h	2.4	4.54	13.4
1 h	3.86	3.99	9.76
1.5 h	2.58	5.25	14.8
2 h	3.96	3.37	17.1
3 h	3.29	2.88	19.8
4 h	2.96	2.38	15.4
5 h	3.03	3.88	27.8
5 min	1.06	0.37	1.47
6 h	2.28	4.26	15.1
8 h	3.13	4.09	17.4
10 min	1.22	0.81	2.73
20 min	1.82	2.04	5.65
24 h	1.38	–	11.1
32 h	1.46	1.02	5.85
